In BigSolDB 2.1:

C[n+]1ccn(CCOCCn2cc[n+](C)c2)c1.F[P-](F)(F)(F)(F)F.F[P-](F)(F)(F)(F)F
solubility (mole fraction)
Settings | in acetone | in acetonitrile | in ethanol | in methanol | in water
283 K | 0.0599 | 0.0726 | 3.2e-05 | 0.000171 | 0.000118
288 K | 0.061 | 0.0749 | 3.8e-05 | 0.000234 | 0.000157
293 K | 0.0621 | 0.0775 | 4.7e-05 | 0.000298 | 0.00021
298 K | 0.0631 | 0.0802 | 5.6e-05 | 0.000376 | 0.000271
303 K | 0.0641 | 0.0834 | 6.9e-05 | 0.000464 | 0.000345
